Assays:
Test in all cases: relative viability (nuclei count vs DMSO), 5 days (fraction); higher = more cells survive
[1] = compound: CC1=CC(=NN1)NC2=CC(=NC(=N2)/C=C/C3=CC=CC=C3)N4CCN(CC4)C + C[C@]1(O)C[C@@H](c2nc(-c3ccc4ccc(-c5ccccc5)nc4c3)c3c(N)nccn32)C1 [Linsitinib] (partner 1 µM)
In short: (§1)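 Lung cancer cell lines were seeded in 1536-well plates and dosed by pin tool the next day, with either a single drug or a fixed anchor-drug dose combined with five library-drug doses (not always all listed) spaced in √10 steps. Five days later, one step fixed the cells and stained their nuclei (final 0.05% Triton X-100, 1% formaldehyde, 1 ug/ml Hoechst), and nuclei were counted on 4× images. Relative viability is the nuclei count in treated wells divided by the count in vehicle wells, and each value is the median of duplicate plates.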

[2] = compound: CC1=CC(=NN1)NC2=CC(=NC(=N2)/C=C/C3=CC=CC=C3)N4CCN(CC4)C + Cc1nc(NC(=O)N2CCC[C@H]2C(N)=O)sc1-c1ccnc(C(C)(C)C(F)(F)F)c1 [Alpelisib] (partner 2 µM)
In short: as §1

Obatoclax + Navitoclax = compound: COC1=CC(c2cc3ccccc3[nH]2)=N/C1=C\c1[nH]c(C)cc1C [Obatoclax] + CC1(C)CCC(c2ccc(Cl)cc2)=C(CN2CCN(c3ccc(C(=O)NS(=O)(=O)c4ccc(N[C@H](CCN5CCOCC5)CSc5ccccc5)c(S(=O)(=O)C(F)(F)F)c4)cc3)CC2)C1 [Navitoclax] (partner 0.5 µM)
In short: as §1

Obatoclax + Vorinostat = compound: COC1=CC(c2cc3ccccc3[nH]2)=N/C1=C\c1[nH]c(C)cc1C [Obatoclax] + O=C(CCCCCCC(=O)Nc1ccccc1)NO [Vorinostat] (partner 1 µM)
In short: as §1

| Cell Line | relative viability ([1]; first compound 0.08 µM) | relative viability ([1]; first compound 0.253 µM) | relative viability ([1]; first compound 0.8 µM) | relative viability ([1]; first compound 2.53 µM) | relative viability ([1]; first compound 8 µM) | relative viability ([2]; first compound 0.08 µM) | relative viability ([2]; first compound 0.253 µM) | relative viability ([2]; first compound 0.8 µM) | relative viability ([2]; first compound 2.53 µM) | relative viability ([2]; first compound 8 µM) | relative viability (Obatoclax + Navitoclax; first compound 0.01 µM) | relative viability (Obatoclax + Navitoclax; first compound 0.03162 µM) | relative viability (Obatoclax + Navitoclax; first compound 0.1 µM) | relative viability (Obatoclax + Navitoclax; first compound 0.3162 µM) | relative viability (Obatoclax + Navitoclax; first compound 1 µM) | relative viability (Obatoclax + Vorinostat; first compound 0.01 µM) | relative viability (Obatoclax + Vorinostat; first compound 0.03162 µM) | relative viability (Obatoclax + Vorinostat; first compound 0.1 µM) | relative viability (Obatoclax + Vorinostat; first compound 0.3162 µM) | relative viability (Obatoclax + Vorinostat; first compound 1 µM) |
| --- | --- | --- | --- | --- | --- | --- | --- | --- | --- | --- | --- | --- | --- | --- | --- | --- | --- | --- | --- | --- |
| NCI-H1944 | 1.21 | 1.4 | 1.23 | 0.86 | 0.348 | 0.816 | 0.995 | 0.759 | 0.568 | 0.304 | 0.97 | 1.01 | 1.05 | 1.05 | 1.08 | 0.519 | 0.484 | 0.57 | 0.561 | 0.527 |
| SK-MES-1 | 1.06 | 1.04 | 0.939 | 0.796 | 0.146 | 0.882 | 0.853 | 0.958 | 0.623 | 0.131 | 1.28 | 1.16 | 1.22 | 1.03 | 0.64 | 1.06 | 1.11 | 0.905 | 0.907 | 0.301 |
| NCI-H1355 | 0.797 | 0.843 | 0.779 | 0.62 | 0.41 | 0.863 | 0.859 | 0.683 | 0.605 | 0.192 | 0.883 | 0.976 | 0.953 | 0.885 | 0.91 | 0.623 | 0.625 | 0.627 | 0.601 | 0.623 |
| SK-LU-1 | 0.93 | 1.18 | 0.84 | 0.238 | 0.142 | 1.05 | 0.972 | 0.636 | 0.223 | 0.113 | 0.753 | 0.871 | 0.424 | 0.222 | 0.216 | 0.833 | 0.827 | 0.723 | 0.671 | 0.441 |
| NCI-H2228 | 0.776 | 0.709 | 0.506 | 0.154 | 0.0965 | 0.632 | 0.714 | 0.437 | 0.112 | 0.0706 | 1.16 | 0.984 | 0.677 | 0.919 | 0.944 | 0.564 | 0.83 | 0.859 | 0.654 | 0.164 |
| IA-LM | 0.561 | 0.61 | 0.878 | 0.752 | 0.729 | 0.737 | 0.799 | 0.782 | 0.461 | 0.221 | 0.852 | 0.855 | 0.666 | 0.065 | 0.0608 | 0.993 | 0.89 | 1.05 | 0.905 | 1.11 |
